Reference: publication PMC6090053, “Substrate Specificity of Acyltransferase Domains for Efficient Transfer of Acyl Groups” (Frontiers in Microbiology, 2018)

Tests used:
[1] = target: T1, AT5monAIV of monensin PKS (Streptomyces virginiae, UniProt Q846X3); assay: trans-acylation of holo-ACP10FkbA, HPLC-MS; assay type: biochemical; conditions: 16 uM acyl-CoA, 16 uM holo-ACP10FkbA, 1.6 uM AT, pH 8.0, 25 C, 2 h
T1 construct: gene monAIV; excised AT domain of module 5, synthetic gene, E. coli BL21(DE3), Ni-NTA
T1 sequence (Q846X3 entry or part of it): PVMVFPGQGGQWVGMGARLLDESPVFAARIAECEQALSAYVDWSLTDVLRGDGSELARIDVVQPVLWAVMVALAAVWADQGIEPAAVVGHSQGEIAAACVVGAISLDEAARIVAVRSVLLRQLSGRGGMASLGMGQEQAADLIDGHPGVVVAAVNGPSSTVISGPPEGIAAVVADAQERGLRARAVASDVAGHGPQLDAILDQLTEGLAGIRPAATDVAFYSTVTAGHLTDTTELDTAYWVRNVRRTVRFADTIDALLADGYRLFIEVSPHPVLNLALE
Excerpt: trans-acylation of holo-ACP10FkbA, HPLC-MS on AT5monAIV of monensin PKS

AT4FkbB of FK520 PKS [2] = target: T2, AT4FkbB of FK520 PKS (Streptomyces hygroscopicus, UniProt Q9KIE0); assay: self-acylation, HPLC-MS of intact protein; assay type: biochemical; conditions: 200 uM acyl-CoA, 20 uM AT, pH 8.0, 25 C, 1 h; covalent acyl-enzyme
T2 construct: gene fkbB; excised AT domain of module 4 of FkbB, synthetic gene, E. coli BL21(DE3), Ni-NTA
T2 sequence (Q9KIE0 entry or part of it): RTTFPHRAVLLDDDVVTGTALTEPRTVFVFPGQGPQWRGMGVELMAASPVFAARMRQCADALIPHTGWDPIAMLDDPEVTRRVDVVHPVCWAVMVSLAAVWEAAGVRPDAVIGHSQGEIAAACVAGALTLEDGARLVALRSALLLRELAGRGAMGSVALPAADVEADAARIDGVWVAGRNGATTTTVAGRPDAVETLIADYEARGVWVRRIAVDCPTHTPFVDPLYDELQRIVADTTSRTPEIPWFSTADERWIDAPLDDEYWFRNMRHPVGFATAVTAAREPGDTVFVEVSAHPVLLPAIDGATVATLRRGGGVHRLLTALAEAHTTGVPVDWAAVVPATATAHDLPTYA
Excerpt: (§1) self-acylation, HPLC-MS of intact protein on AT4FkbB of FK520 PKS

AT4FkbB of FK520 PKS [3] = target: T2, AT4FkbB of FK520 PKS; assay: self-acylation, HPLC-MS of intact protein; assay type: biochemical; conditions: 200 uM acyl-CoA, 20 uM AT, pH 8.0, 25 C, 1 h; covalent acyl-enzyme; remark: listed apart in the source
Excerpt: as §1

[4] = target: T1, AT5monAIV of monensin PKS; assay: self-acylation, HPLC-MS of intact protein; assay type: biochemical; conditions: 200 uM acyl-CoA, 20 uM AT, pH 8.0, 25 C, 1 h; covalent acyl-enzyme
Excerpt: (§2) self-acylation, HPLC-MS of intact protein on AT5monAIV of monensin PKS

[5] = target: T3, AT3lsd12 of lasalocid PKS (Streptomyces lasalocidi, UniProt B6ZK65); assay: self-acylation, HPLC-MS of intact protein; assay type: biochemical; conditions: 200 uM acyl-CoA, 20 uM AT, pH 8.0, 25 C, 1 h; covalent acyl-enzyme
T3 construct: gene lsd12; excised AT domain of module 3, synthetic gene, E. coli BL21(DE3), Ni-NTA
T3 sequence (B6ZK65 entry or part of it): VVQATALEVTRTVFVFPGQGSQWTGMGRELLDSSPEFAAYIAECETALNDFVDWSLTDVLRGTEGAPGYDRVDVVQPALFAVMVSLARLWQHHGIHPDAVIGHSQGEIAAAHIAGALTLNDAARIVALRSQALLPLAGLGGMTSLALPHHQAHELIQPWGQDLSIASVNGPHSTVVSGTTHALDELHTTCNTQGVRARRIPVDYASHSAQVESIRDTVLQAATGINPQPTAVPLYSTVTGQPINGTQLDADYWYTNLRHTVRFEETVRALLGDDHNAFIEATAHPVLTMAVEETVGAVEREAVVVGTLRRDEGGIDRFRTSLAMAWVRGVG
Excerpt: (§3) self-acylation, HPLC-MS of intact protein on AT3lsd12 of lasalocid PKS

AT4FkbB of FK506 PKS [6] = target: T4, AT4FkbB of FK506 PKS (Streptomyces tsukubensis, UniProt W8RMH0, Q6687A); assay: self-acylation, HPLC-MS of intact protein; assay type: biochemical; conditions: 200 uM acyl-CoA, 20 uM AT, pH 8.0, 25 C, 1 h; covalent acyl-enzyme
T4 construct: gene fkbB; excised AT domain of module 4 of FkbB, E. coli BL21(DE3), Ni-NTA
T4 sequence (W8RMH0 entry or part of it Q6687A): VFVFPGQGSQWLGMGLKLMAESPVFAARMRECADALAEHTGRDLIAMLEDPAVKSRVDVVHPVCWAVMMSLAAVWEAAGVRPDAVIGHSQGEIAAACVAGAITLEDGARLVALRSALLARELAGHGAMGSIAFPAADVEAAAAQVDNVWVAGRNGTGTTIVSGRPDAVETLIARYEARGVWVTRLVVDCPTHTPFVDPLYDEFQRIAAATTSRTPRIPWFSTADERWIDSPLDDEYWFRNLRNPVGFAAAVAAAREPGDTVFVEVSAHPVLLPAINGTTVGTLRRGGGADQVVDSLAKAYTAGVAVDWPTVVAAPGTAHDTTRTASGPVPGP
Excerpt: (§4) self-acylation, HPLC-MS of intact protein on AT4FkbB of FK506 PKS

AT4FkbB of FK506 PKS [7] = target: T5, AT4FkbB of FK506 PKS (Streptomyces tsukubensis, UniProt W8RMH0); assay: self-acylation, HPLC-MS of intact protein; assay type: biochemical; conditions: 200 uM acyl-CoA, 20 uM AT, pH 8.0, 25 C, 1 h; covalent acyl-enzyme at Ser89
T5 construct: gene fkbB; excised AT domain of module 4 of FkbB, E. coli BL21(DE3), Ni-NTA
T5 sequence (W8RMH0 entry or part of it): as the sequence (W8RMH0 entry or part of it Q6687A) above, with A119Q counted along it
Excerpt: as §4

AT4FkbB of FK506 PKS [8] = target: T6, AT4FkbB of FK506 PKS (Streptomyces tsukubensis, UniProt W8RMH0, Q6687A/L6753I/V6754D/V6755T/F6771L); assay: self-acylation, HPLC-MS of intact protein; assay type: biochemical; conditions: 200 uM acyl-CoA, 20 uM AT, pH 8.0, 25 C, 1 h; covalent acyl-enzyme
T6 construct: gene fkbB; excised AT domain of module 4 of FkbB, E. coli BL21(DE3), Ni-NTA
T6 sequence (W8RMH0 entry or part of it Q6687A/L6753I/V6754D/V6755T/F6771L): as the sequence (W8RMH0 entry or part of it Q6687A) above, with L185I, V186D, V187T, F203L counted along it
Excerpt: as §4

AT4FkbB of FK506 PKS [9] = target: T7, AT4FkbB of FK506 PKS (Streptomyces tsukubensis, UniProt W8RMH0, L6753I/V6754D/V6755T); assay: self-acylation, HPLC-MS of intact protein; assay type: biochemical; conditions: 200 uM acyl-CoA, 20 uM AT, pH 8.0, 25 C, 1 h; covalent acyl-enzyme
T7 construct: gene fkbB; excised AT domain of module 4 of FkbB, E. coli BL21(DE3), Ni-NTA
T7 sequence (W8RMH0 entry or part of it L6753I/V6754D/V6755T): as the sequence (W8RMH0 entry or part of it Q6687A) above, with A119Q, L185I, V186D, V187T counted along it
Excerpt: as §4

AT4FkbB of FK506 PKS [10] = target: T8, AT4FkbB of FK506 PKS (Streptomyces tsukubensis, UniProt W8RMH0, V6755K); assay: self-acylation, HPLC-MS of intact protein; assay type: biochemical; conditions: 200 uM acyl-CoA, 20 uM AT, pH 8.0, 25 C, 1 h; covalent acyl-enzyme
T8 construct: gene fkbB; excised AT domain of module 4 of FkbB, E. coli BL21(DE3), Ni-NTA
T8 sequence (W8RMH0 entry or part of it V6755K): as the sequence (W8RMH0 entry or part of it Q6687A) above, with A119Q, V187K counted along it
Excerpt: as §4

[11] = target: T3, AT3lsd12 of lasalocid PKS; assay: self-acylation, HPLC-MS of intact protein; assay type: biochemical; conditions: 200 uM acyl-CoA, 20 uM AT, pH 8.0, 25 C, 1 h; covalent acyl-enzyme; remark: listed apart in the source
Excerpt: as §3

AT4FkbB of FK520 PKS [12] = target: T2, AT4FkbB of FK520 PKS; assay: self-acylation, HPLC-MS of intact protein; assay type: biochemical; conditions: 200 uM acyl-CoA, 20 uM AT, pH 8.0, 25 C, 1 h; covalent acyl-enzyme; remark: listed apart in the source
Excerpt: as §1

[13] = self-acylation, HPLC-MS of intact protein; assay type: biochemical, Streptomyces virginiae; conditions: 200 uM acyl-CoA, 20 uM AT, pH 8.0, 25 C, 1 h; covalent acyl-enzyme
Excerpt: as §2

For CC(C(=O)O)C(=O)SCCNC(=O)CCNC(=O)[C@H](O)C(C)(C)COP(=O)(O)OP(=O)(O)OC[C@H]1O[C@@H](n2cnc3c(N)ncnc32)[C@H](O)[C@@H]1OP(=O)(O)O (some centres unmarked) [MM-CoA], the “Trans-acylation reaction (%) / MM-ACP10FkbA” value [1] was 51.2%.
In the case of C=CCC(C(=O)O)C(=O)SCCNC(=O)CCNC(=O)[C@H](O)C(C)(C)COP(=O)(O)OP(=O)(O)OC[C@H]1O[C@@H](n2cnc3c(N)ncnc32)[C@H](O)[C@@H]1OP(=O)(O)O (some centres unmarked) [allmal-CoA], the “Self-acylation reaction (%) / Allmal-AT4FkbB^∗” value (AT4FkbB of FK520 PKS [2]) is reported as 31.5%, the “Self-acylation reaction (%) / Allmal-AT4FkbB^∗” value (AT4FkbB of FK520 PKS [3]) is reported as 61.3% and the “Self-acylation reaction (%) / Allmal-AT4FkbB^∗” value [4] is reported as 49.8%. For the same compound, the “Self-acylation reaction (%) / Allmal-AT4FkbB^∗” value [5] was 17.8%, the “Self-acylation reaction (%) / Allmal-AT4^∗FkbB” value (AT4FkbB of FK506 PKS [6]) was 29.2% and the “Self-acylation reaction (%) / Allmal-AT4^∗FkbB” value (AT4FkbB of FK506 PKS [7]) was 69.7%. The “Self-acylation reaction (%) / Allmal-AT4^∗FkbB” value (AT4FkbB of FK506 PKS [8]) was 27.1%, the “Self-acylation reaction (%) / Allmal-AT4^∗FkbB” value (AT4FkbB of FK506 PKS [9]) was 28.0% and the “Self-acylation reaction (%) / Allmal-AT4^∗FkbB” value (AT4FkbB of FK506 PKS [10]) was 78.8%. For the same compound, the “Self-acylation reaction (%) / Allmal-AT4FkbB^∗” value [11] was 41.4% and the “Self-acylation reaction (%) / Allmal-AT4FkbB^∗” value (AT4FkbB of FK520 PKS [12]) was 58.2%.
With CCC(C(=O)O)C(=O)SCCNC(=O)CCNC(=O)[C@H](O)C(C)(C)COP(=O)(O)OP(=O)(O)OC[C@H]1O[C@@H](n2cnc3c(N)ncnc32)[C@H](O)[C@@H]1OP(=O)(O)O (some centres unmarked) [ethmal-CoA] the “Self-acylation reaction (%) / Ethmal-AT4FkbB^∗” value (AT4FkbB of FK520 PKS [2]) was 65.1%, the “Self-acylation reaction (%) / Ethmal-AT4FkbB^∗” value [5] was 78.1% and the “Self-acylation reaction (%) / Ethmal-AT4FkbB^∗” value [13] was 63.7%. For the same compound, the “Self-acylation reaction (%) / Ethmal-AT4^∗FkbB” value (AT4FkbB of FK506 PKS [7]) was 62.0% and the “Self-acylation reaction (%) / Ethmal-AT4^∗FkbB” value (AT4FkbB of FK506 PKS [10]) was 32.3%.
